Experimental data as given in patent US12636319B2, “Pharmaceutical composition for preventing or treating atopic disease containing Akkermansia muciniphila strain” (ENTEROBIOME INC., priority 2020, dated 2026).
≈ marks a conversion by molar mass, not a printed value.

Assays:
[1] = system: Akkermansia muciniphila EB-AMDK19; assay: MIC by CLSI broth microdilution, isolated strain; format: cell-based; details: EBAMDK19, test strain EB-AMDK19
[2] = system: Bacteroides thetiotaomicron ATCC 29741; assay: MIC by CLSI broth microdilution, QC strain; format: cell-based
[3] = system: Akkermansia muciniphila ATCC BAA-835; assay: MIC by CLSI broth microdilution, type strain; format: cell-based; details: ATCCBAA835, test strain ATCC BAA-835
IgE = assay: Serum IgE concentration by ELISA; format: in vivo, mouse
Experimental: (§1) The Akkermansia muciniphila ATCC BAA-835 strain and Akkermansia muciniphila EB-AMDK19 live bacteria used in this experiment were prepared at a concentration of 1×10^8 CFU/150 μl PBS (25% glycerol, 0.05% cysteine/PBS).
(§2) To observe atopic dermatitis lesions, 6-week-old NC/Nga mice (weighed about 21 to 25 g, SLC, Inc., Japan) were purchased from Daehan Biolink Co., Ltd. (Chungbuk, Korea). Animal tests were carried out in accordance with the Animal use and Care Protocol of the Institutional Animal Care and Use Committee (IACUC). The animals were acclimated for one week, and then raised for 9 weeks at a constant temperature of 22° C. and a relative humidity of 50 to 60% with a 12-hr light/12-hr dark cycle.
(§3) The backs of 6-week-old NC/Nga mice were shaved clean, and then left to stand for 24 hours so that fine wounds of the skin were healed. 1% 2,4-dinitrochlorobenzene (DNCB) solution (Sigma-Aldrich Korea) was applied to the back of each mouse twice a week for 3 weeks to induce an immune response, and then 0.5% DNCB solution was applied twice a week to induce contact dermatitis. […]
At the end of the experiment, each of the mice was anesthetized with CO2 and blood was collected by cardiac puncture. The collected blood was centrifuged at 10,000 rpm for 5 minutes to separate the serum, and the serum IgE concentration was measured. […]

[4] = system: DNCB-induced atopic dermatitis in NC/Nga mice; assay: Spleen weight in DNCB-induced atopic dermatitis; format: in vivo, mouse; details: end of experiment; compared to the atopic dermatitis-induced group
Experimental: as §1, §2
(§4) The backs of 6-week-old NC/Nga mice were shaved clean, and then left to stand for 24 hours so that fine wounds of the skin were healed. […]
Thus, the weight of the spleen was measured to observe the effect of the composition for preventing atopic dermatitis on the immune organs of NC/Nga mice with atopic dermatitis induced by DNCB. […] The collected spleen tissues were washed with physiological saline, and then the sizes thereof were visually observed and the weights thereof were measured using a microbalance.

[5] = system: DNCB-induced atopic dermatitis in NC/Nga mice; assay: Dermatitis score (modified SCORAD) in DNCB-induced atopic dermatitis; format: in vivo, mouse; details: week 6, compared to the atopic dermatitis-induced group; oral daily
Experimental: as §1, §2, §4
After atopic dermatitis was induced by DNCB, treatment was performed by administering a preparation containing each of dexamethasone (DEX), the ATCC BAA-835 strain and the EB-AMDK19 strain for 6 weeks. […] Skin dryness, edema, erythema/hemorrhage, and erosion/excoriation were scored as follows: no symptoms=0, weak symptoms=1, moderate symptoms=2, and severe symptoms=3.

[6] = system: DNCB-induced atopic dermatitis in NC/Nga mice; assay: Ear edema (ear thickness) in DNCB-induced atopic dermatitis; format: in vivo, mouse; details: at 6 weeks; normal group 0.55 mm, atopic dermatitis-induced group 1.50 mm
Experimental: as §1, §2, §3
After severe atopic dermatitis was induced, the mice after completion of the experiment were sacrificed by anesthetizing with CO2, and then the degree of edema of both ears was measured by the velocity transformation technique using a thickness gauge (Digimatic thickness gauge, 547-301, Mitutoyo, Japan).

Th2/Th1 cytokines = assay: Ratio of Th2/Th1 serum cytokines; format: in vivo, mouse; details: compared to the atopic dermatitis-induced group
Experimental: as §1
as §2, with “cycle. […]” for “cycle.”
At the end of the experiment, the mice were anesthetized with CO2, and blood was collected by cardiac puncture. […] The concentrations of IL-4, IL-12, IFN-γ and IL-6 cytokines were measured using an ELISA kit (Invitrogen, CA, USA), and the results of the measurement are shown in FIGS. 17(A), 17(B), 18(A), and 18(B).
From an immunological point of view, atopic dermatitis is a disease caused by an excessive imbalance between Th1 and Th2 immune responses. Thus, the cytokine concentrations measured as described above were expressed as the ratio of Th2/Th1 cytokines, and the results are shown in FIGS. 19(A), 19(B), 20(A), and 20(B).

[7] = system: DNCB-induced atopic dermatitis in NC/Nga mice; assay: Scratching frequency in DNCB-induced atopic dermatitis; format: in vivo, mouse; details: scratching for 10 minutes, day before end; compared to the atopic dermatitis-induced group
Experimental: as §1, §2, §3
The day before the end of the experiment, the frequency of scratching the affected area due to itching was measured. For measurement of the frequency of scratching, each mouse was acclimated for 10 minutes, and then the frequency of scratching for 10 minutes was measured using a counter.

O=C(N[C@H](CO)[C@H](O)c1ccc([N+](=O)[O-])cc1)C(Cl)Cl [CHL, chloramphenicol] was tested, and the MIC [1] was 4 mg/L (≈ 12.4 µM), the MIC ([2]; Bacteroides, ATCC29741) was 8 mg/L (≈ 24.8 µM) and the MIC [3] was 4 mg/L (≈ 12.4 µM).
CCC[C@@H]1C[C@@H](C(=O)N[C@@H]([C@H]2O[C@H](SC)[C@H](O)[C@@H](O)[C@H]2O)[C@H](C)Cl)N(C)C1 [CLI, clindamycin] showed an MIC [1] of 4 mg/L (≈ 9.41 µM) and an MIC [3] of no more than 0.125 mg/L.
In the case of CO/N=C(\C(=O)N[C@@H]1C(=O)N2C(C(=O)O)=CCS[C@H]12)c1csc(N)n1 [CTZ, ceftizoxime], the MIC [1] is reported as 1 mg/L (≈ 2.61 µM), the MIC ([2]; Bacteroides, ATCC29741) is reported as 16 mg/L (≈ 41.7 µM) and the MIC [3] is reported as 2 mg/L (≈ 5.22 µM).
For C[C@@H]1C[C@H]2[C@@H]3CCC4=CC(=O)C=C[C@]4(C)[C@@]3(F)[C@@H](O)C[C@]2(C)[C@@]1(O)C(=O)CO [DEX, dexamethasone], the “serum IgE decrease” value (IgE; compared to the atopic dermatitis-induced group) was 40.70%, the “serum IgE concentration” value (IgE; end of experiment, ELISA) was 11891.34 ng/mL and the “decrease in spleen weight” value [4] was 23.3%. The “decrease in dermatitis score” value [5] was 38.4%, the ear edema [6] was 1.00 mm and the “decrease of IL-6/IFN-γ ratio” value (Th2/Th1 cytokines) was 12.7%. The “decrease of IL-6/IL-12 ratio” value (Th2/Th1 cytokines) was 34.5% and the “decrease in scratching frequency” value [7] was “about 59.4%”.
With C[C@@H](O)[C@H]1C(=O)N2C(C(=O)O)=C(S[C@@H]3CN[C@H](C(=O)N(C)C)C3)[C@H](C)[C@H]12 [MEM, meropenem] the MIC [1] was 0.5 mg/L (≈ 1.3 µM), the MIC ([2]; Bacteroides, ATCC29741) was 0.5 mg/L (≈ 1.3 µM) and the MIC [3] was 1 mg/L (≈ 2.61 µM).
Cc1ncc([N+](=O)[O-])n1CCO [MTZ, metronidazole] showed an MIC [1] of 0.5 mg/L (≈ 2.92 µM), an MIC ([2]; Bacteroides, ATCC29741) of 2 mg/L (≈ 11.7 µM) and an MIC [3] of no more than 0.25 mg/L.
With COc1c(N2C[C@@H]3CCCN[C@@H]3C2)c(F)cc2c(=O)c(C(=O)O)cn(C3CC3)c12 [MXF, moxifloxacin] the MIC [1] was greater than 32 mg/L, the MIC ([2]; Bacteroides, ATCC29741) was 8 mg/L (≈ 19.9 µM) and the MIC [3] was greater than 32 mg/L.
With Piperacillin-tazobactam [PTZ] the MIC ([2]; QC strain ATCC 29741, broth microdilution, CLSI) was 8/4.
